# Test results from ChEMBL document CHEMBL6092180 (Eur J Med Chem, 2024).
# Calls of active or inactive are those of the source. The calls are words filed in the database; no cut-off is given here.
# Columns and labels:
# Candida albicans [1] = test: Antifungal activity against fluconazole-resistant Candida albicans CaR assessed as inhibition of fungal growth by CLSI M27-A3 guidelines based method; format: functional
# Nakaseomyces glabratus = test: Antifungal activity against Candida glabrata assessed as inhibition of fungal growth by CLSI M27-A3 guidelines based method; format: functional
# [2] = Metabolic stability in human liver microsomes assessed as parent compound remaining preincubated for 10 mins followed by NADPH addition and measured after 60 mins by LC-MS/MS analysis; format: ADME, Microsome; settings: time 70 min, read-out: Stability
# Candida albicans [3] = test: Antibiofilm activity against fluconazole-resistant Candida albicans CPCC400616 assessed as inhibition of metabolic activity of biofilm measured after 24 hrs by XTT reduction assay; format: functional
# Candida parapsilosis = test: Antifungal activity against Candida parapsilosis GIM 2.190 assessed as inhibition of fungal growth by CLSI M27-A3 guidelines based method; format: functional; settings: Lodderomyces parapsilosis
# Candida albicans [4] = test: Fungicidal activity against fluconazole and iodiconazole resistant Candida albicans clinical isolate 17# incubated for 48 hrs by PDA plate based method; format: functional
# Candida albicans [5] = test: Antifungal activity against fluconazole and iodiconazole resistant Candida albicans clinical isolate 17# assessed as inhibition of fungal growth by CLSI M27-A3 guidelines based method; format: functional
# Aspergillus fumigatus = test: Antifungal activity against Aspergillus fumigatus cgmcc 3.7795 assessed as inhibition of fungal growth by CLSI M27-A3 guidelines based method; format: functional
# Candida albicans [6] = test: Selectivity ratio of MFC for fungicidal activity against Candida albicans SC5314 to MIC80 for antifungal activity against Candida albicans SC5314; format: functional
# Candida albicans [7] = test: Antibiofilm activity against fluconazole-resistant Candida albicans CPCC400616 assessed as inhibition of metabolic activity of biofilm measured after 6 hrs by XTT reduction assay; format: functional
# Candida albicans [8] = test: Fungicidal activity fluconazole and iodiconazole resistant Candida albicans clinical isolate 17# assessed as decrease in number of fungi at 8 times of MIC measured within 24 hrs by time-kill kinetics assay; format: functional, organism-based
# Candida albicans [9] = test: Fungicidal activity against Candida albicans SC5314 incubated for 48 hrs by PDA plate based method; format: functional
# [10] = Cytotoxicity against HUVEC cells assessed as inhibition of cell growth incubated for 72 hrs by MTT assay; format: toxicity, cell-based; settings: human
# Pichia kudriavzevii = test: Antifungal activity against Candida krusei GIM 2.1 assessed as inhibition of fungal growth by CLSI M27-A3 guidelines based method; format: functional
# Candida albicans [11] = test: Antifungal activity against fluconazole-resistant Candida albicans clinical isolate 904 assessed as inhibition of fungal growth by CLSI M27-A3 guidelines based method; format: functional
# Candida albicans [12] = test: Antifungal activity against fluconazole-resistant Candida albicans clinical isolate 901 assessed as inhibition of fungal growth by CLSI M27-A3 guidelines based method; format: functional
# [13] = Cytotoxicity against human NCI-H460 cells assessed as inhibition of cell growth incubated for 72 hrs by MTT assay; format: toxicity, cell-based
# [14] = Metabolic stability in human liver microsomes assessed as half-life preincubated for 10 mins followed by NADPH addition and measured after 60 mins by LC-MS/MS analysis; format: ADME, Microsome; settings: time 70 min
# Candida albicans [15] = test: Antifungal activity against Candida albicans SC5314 assessed as inhibition of fungal growth by CLSI M27-A3 guidelines based method; format: functional
# Candida albicans [16] = test: Antifungal activity against fluconazole-resistant Candida albicans clinical isolate 632 assessed as inhibition of fungal growth by CLSI M27-A3 guidelines based method; format: functional
# [17] = Cytotoxicity against HEK293T cells assessed as inhibition of cell growth incubated for 72 hrs by MTT assay; format: toxicity, cell-based, HEK-293T; settings: human
# Candida albicans [18] = test: Antifungal activity against fluconazole-resistant Candida albicans clinical isolate 103 assessed as inhibition of fungal growth by CLSI M27-A3 guidelines based method; format: functional
# Candida tropicalis = test: Antifungal activity against Candida tropicalis GIM 2.183 assessed as inhibition of fungal growth by CLSI M27-A3 guidelines based method; format: functional
# Candida albicans [19] = test: Antifungal activity against fluconazole-resistant Candida albicans clinical isolate 100 assessed as inhibition of fungal growth by CLSI M27-A3 guidelines based method; format: functional
# Cryptococcus neoformans = test: Antifungal activity against Cryptococcus neoformans CGMCC 2.3161 assessed as inhibition of fungal growth by CLSI M27-A3 guidelines based method; format: functional
# Candida albicans [20] = test: Antifungal activity against Candida albicans GIM 2.194 assessed as inhibition of fungal growth by CLSI M27-A3 guidelines based method; format: functional
# Candida albicans [21] = test: Antifungal activity against fluconazole-resistant Candida albicans clinical isolate 311 assessed as inhibition of fungal growth by CLSI M27-A3 guidelines based method; format: functional
# [22] = Cytotoxicity against human OVCAR-3 cells assessed as inhibition of cell growth incubated for 72 hrs by MTT assay; format: toxicity, cell-based
# Candida albicans [23] = test: Effect on sterol composition in Candida albicans SC5314 assessed as ergosterol content at 4 microg/ml measured after 16 hrs by GC-MS analysis (reference value: 96.96 %); format: functional; settings: dose 4 µg/ml
# Candida albicans [24] = test: Effect on sterol composition in Candida albicans SC5314 assessed as other sterols content at 4 microg/ml measured after 16 hrs by GC-MS analysis (reference value: 1.06 %); format: functional; settings: dose 4 µg/ml
# Candida albicans [25] = test: Effect on sterol composition in Candida albicans SC5314 assessed as 14alpha-demethyllanosterol content at 4 microg/ml measured after 16 hrs by GC-MS analysis (reference value: 1.98 %); format: functional; settings: dose 4 µg/ml
# Candida albicans [26] = test: Effect on sterol composition in Candida albicans SC5314 assessed as eburicol content at 4 microg/ml measured after 16 hrs by GC-MS analysis relative to control; format: functional; settings: dose 4 µg/ml
# Candida albicans [27] = test: Fungicidal activity fluconazole and iodiconazole resistant Candida albicans clinical isolate 17# assessed as decrease in number of fungi at 16 microg/ml measured within 24 hrs by time-kill kinetics assay; format: functional, organism-based; settings: dose 16.0 µg/ml
# Candida albicans [28] = test: Effect on sterol composition in Candida albicans SC5314 assessed as lanosterol content at 4 microg/ml measured after 16 hrs by GC-MS analysis relative to control; format: functional; settings: dose 4 µg/ml
# Candida albicans [29] = test: Inhibition of hyphal formation in fluconazole-resistant Candida albicans CPCC400616 assessed as reduction in invasive ability at 2 microg/ml measured after 4 hrs by inverted microscopic analysis; format: functional, organism-based; settings: dose 2.0 µg/ml
# Candida albicans [30] = test: Effect on sterol composition in Candida albicans SC5314 assessed as obtusifoliol content at 4 microg/ml measured after 16 hrs by GC-MS analysis relative to control; format: functional; settings: dose 4 µg/ml
SMILES,MIC80 (Candida albicans [1]) [µg/mL],MIC80 (Nakaseomyces glabratus) [µg/mL],MIC50 (Candida albicans [3]) [µg/mL],MIC80 (Candida parapsilosis) [µg/mL],MFC (Candida albicans [4]) [µg/mL],MIC80 (Candida albicans [5]) [µg/mL],MIC80 (Aspergillus fumigatus) [µg/mL],MIC50 (Candida albicans [7]) [µg/mL],MFC (Candida albicans [9]) [µg/mL],IC50 at 72 h [10] [µM],MIC80 (Pichia kudriavzevii) [µg/mL],MIC80 (Candida albicans [11]) [µg/mL],MIC80 (Candida albicans [12]) [µg/mL],IC50 at 72 h [13] [µM],MIC80 (Candida albicans [15]) [µg/mL],MIC80 (Candida albicans [16]) [µg/mL],IC50 at 72 h [17] [µM],MIC80 (Candida albicans [18]) [µg/mL],MIC80 (Candida tropicalis) [µg/mL],MIC80 (Candida albicans [19]) [µg/mL],also measured
CN(Cc1ccc(I)cc1)CC(O)(Cn1cncn1)c1ccc(F)cc1F (stereo not given),2,0.2,16,0.025,32,0.25,0.25,8,32,> 10,0.2,8,> 64,> 10,0.013,16,> 10,32,0.013,2,remaining at 1 h [2]: 13.1%; Selectivity ratio (Candida albicans [6]): >256; Activity (Candida albicans [8]): inactive; half-life [14]: 20.4 min; MIC80 (Cryptococcus neoformans): 0.1 µg/mL; MIC80 (Candida albicans [20]): 0.025 µg/mL; MIC80 (Candida albicans [21]): > 64 µg/mL; IC50 at 72 h [22]: > 10 µM
OC(Cn1cncn1)(Cn1cncn1)c1ccc(F)cc1F [FLUCONAZOLE],> 64,8,> 32,1,> 64,> 64,64,16,> 64,> 40,8,> 64,> 64,> 40,0.25,> 64,> 40,> 64,0.25,> 64,Activity (Candida albicans [23]): 4.57%; Activity (Candida albicans [24]): 8.64%; Activity (Candida albicans [25]): 3.03%; Activity (Candida albicans [26]): 60.09%; Activity (Candida albicans [27]): inactive; Activity (Candida albicans [28]): 9.3%; inhibition (Candida albicans [29]): inactive; MIC80 (Cryptococcus neoformans): 4 µg/mL; MIC80 (Candida albicans [20]): 0.5 µg/mL; MIC80 (Candida albicans [21]): > 64 µg/mL; IC50 at 72 h [22]: > 40 µM; Activity (Candida albicans [30]): 14.37%
